Experiments:
[1] = End point (maximum) amount of water miscible solvent in hydrated DB; format: physicochemical; conditions: MV alginate, 1:1.25 alginate:water
Procedure: Hydrated DB beads were prepared as example 1 using MV alginate. In this case, the water was used to achieve alginate within the hydrated beads to be 44.44% (w/w), which means 125 mL water and 100 g MV alginate (1:1.25 alginate:water ratio). WMS were propylene glycols (PG), glycerol, polyethylene glycol (PEG400) and absolute ethanol. Then, different amounts of volatile and non-volatile water miscible solvents (WMS) were added slowly to the hydrated beads under high shear mixing. The end point (the optimized amount of WMS) was calculated by monitoring physical properties of hydrated beads including size and hardness as described in examples 1 & 2. […] Beads then were cross-linked, washed and dried as described in example 1.
The end point (end point ratio by weight (alginate:water:WMS)) in table 14 means the maximum amount of WMS that allows to obtain acceptable bead hardness (more than 1 kg/cm^2/g beads) and acceptable size range of both wet and dry beads according to the established criteria in table 3 and 4, example 1.

[2] = Limonene loss post baking of pancakes (gas chromatography); format: physicochemical; conditions: pancakes baked at 200° C. for 15 min
Procedure: The amount of D-limonene was assayed pre and post baking. For this purpose, 10 ml of distilled water was added to 5 g pancakes. Then, 30 ml methanol was added and the mixture was centrifuged at 3000 rpm for 20 min for further assay by gas chromatography. The % of lost limonene post packing as the following equation and expressed as the % of lost limonene post packing (w/w): % of lost limonene post baking (w/w)=(Initial amount added before backing−Residual amount of limonene found in baked pancakes)[…] Results

Row | Compound | Total maximum amount of WMS expressed as % w/w [1] [% w/w] | The % of lost limonene one day post packing (w/w), Mean ([2]; one day) | The % of lost limonene one month post packing (w/w), Mean ([2]; one month)
1 | CCO [Ethanol, absolute ethanol] | 25.00 |  | 
2 | C=C(C)[C@H]1CC=C(C)CC1 [Free limonene, (4R)-1-methyl-4-(1-methylethenyl)-cyclohexene] |  | 89.56 % (w/w) | 93.23 % (w/w)
3 | OCC(O)CO [Glycerol, glycerol] | 34.78 |  | 
4 | CC(O)CO (centres unmarked) [Propylene glycols (PG), propylene glycols] | 36.61 |  | 
